In US20240101576A1, “HETEROCYCLIC INHIBITORS OF EGFR AND/OR HER2, FOR USE IN THE TREATMENT OF CANCER” (Scorpion Therapeutics, Inc., priority 2020, published 2024):

Tests used:
Type in all cases: cell-based
[1] = target: T1, EGFR exon 20 NPG Ins D770_N771 (Ba/F3 cells) (Homo sapiens, UniProt P00533, INS770NPG); experiment: Inhibitor activity on EGFR-dependent cell growth (CellTiter-Glo, 72 h), Ba/F3 EGFR exon 20 NPG Ins; conditions: read-out: BaF3 NPG IC50
T1 construct: expressed in transfected cells; host or cells: Ba/F3 (murine pro-B cells), retroviral transduction, puromycin selection, IL3-independent pool
How it was run: (§1)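 IC50s derive from a sigmoidal dose–response fit of CellTiter-Glo signal. The signal was normalised between […]-treated cells and cell-free medium. Ba/F3 mutant-EGFR cells, seeded at 400–800/well depending on the line, had 72 h of exposure to a 10-point, 3-fold compound series.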

[2] = target: T2, EGFR exon 19del (Ba/F3 cells) (Homo sapiens, UniProt P00533); experiment: Inhibitor activity on EGFR-dependent cell growth (CellTiter-Glo, 72 h), Ba/F3 EGFR exon 19del; conditions: Ba/F3 EGFR exon 19del cell growth, read-out: BaF3 Del19 IC50
How it was run: (§2)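 72 h proliferation, Ba/F3 EGFR mutants (no IL3, puromycin-selected pools, EGFR confirmed by Western blot). Seeding of 400 L858R, 600 L858R/C797S and 800 exon 19del/FQEA cells per well. CellTiter-Glo used; controls were […] (high) and medium alone (low).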

[3] = target: T3, EGFR exon 20 SVD Ins D770_N771 (Ba/F3 cells) (Homo sapiens, UniProt P00533, INS770SVD); experiment: Inhibitor activity on EGFR-dependent cell growth (CellTiter-Glo, 72 h), Ba/F3 EGFR exon 20 SVD Ins; conditions: read-out: BaF3 SVD IC50
T3 construct: expressed in transfected cells; host or cells: Ba/F3 (murine pro-B cells), retroviral transduction, puromycin selection, IL3-independent pool
How it was run: as §1

[4] = target: T4, EGFR L858R/C797S (Ba/F3 cells) (Homo sapiens, UniProt P00533, C797S/L858R); experiment: Inhibitor activity on EGFR-dependent cell growth (CellTiter-Glo, 72 h), Ba/F3 EGFR L858R/C797S; conditions: read-out: BaF3 L858R/C797S IC50
T4 construct: expressed in transfected cells; host or cells: Ba/F3 (murine pro-B cells), retroviral transduction, puromycin selection, IL3-independent pool
Description: Example A. Inhibitor Activity on EGFR-Dependent Cell Growth
Cell lines are generated by transducing Ba/F3 cells with retroviruses containing vectors with EGFR WT, EGFR L858R, EGFR exon 19del, EGFR L858R/C797S, EGFR exon 20 NPG Ins D770_N771, EGFR exon 20 ASV Ins V769_D770, EGFR exon 20 SVD Ins D770_N771, or EGFR exon 20 FQEA Ins A763_V764 genes and a puromycin selection marker. Transduced cells are selected with puromycin for 7 days and are then be transferred into culture media without Interleukin 3 (IL3). EGFR WT cells are maintained with supplemental EGF. Surviving cells are confirmed to express EGFR by Western blot and maintained as a pool. The IC50 date were included in Table 6 and Table 7.
(§3) 1.1 Cells are harvested from flask into cell culture medium and the cell number counted.
1.2 Cells are diluted with culture medium to the desired density and 40 μL of cell suspension is added into each well of 384-well cell culture plate and the seeding density is 800 (FQEA, exon 19del), 600 (WT, NPG, L858R/C797S), or 400 (ASV, SVD, L858R) cells/well.
(§4) 2 Compound Preparation and Treatment
(§5) 2.1 Test compounds are dissolved to 10 mM in a DMSO stock solution. 45 μL of stock solution is transferred to a 384 polypropylene plate (pp-plate). Perform 3-fold, 10-point dilution via transferring 15 μL compound into 30 μL DMSO using a TECAN (EVO200) liquid handler.
(§6) 2.2 Spin plates at room temperature at 1,000 RPM for 1 minute.
2.3 Transfer 120 nL of diluted compound from compound source plate into the cell plate.
2.4 After compound treatment for 72 hours, perform CTG detection for compound treatment plates as described in “Detection” section.
3.1 Plates are removed from incubators and equilibrated at room temperature for 15 minutes.
3.2 Thaw the CellTiter Glo reagents and allow to equilibrate to room temperature before the experiment.
3.3 Add 40 μL of CellTiter-Glo reagent into each well (at 1:1 to culture medium). Then place the plates at room temperature for 30 min followed by reading on EnVision.
4.1 Inhibition activity is calculated following the formula below:
% Inhibition=100×(LumHC−LumSample)/(LumHC−LumLC) • where HC is obtained from cells treated with 0.1% DMSO only; and LC is obtained from culture medium only.
4.2 2. Calculate the IC50 by fitting the Curve using Xlfit (v5.3.1.3), equation 201.
Y=Bottom+(Top−Bottom)/(1+10^((Log IC50−X)*HillSlope))

[5] = target: T4, EGFR L858R/C797S (Ba/F3 cells); experiment: Inhibitor activity on EGFR phosphorylation (pEGFR AlphaLISA, 2 h), Ba/F3 EGFR L858R/C797S
Description: (§7) Example B. Inhibitor Activity on EGFR phosphorylation (pEGFR)
(§8) EGFR mutant Ba/F3 cells were generated by transduction with retrovirus containing vectors expressing EGFR L858R, EGFR exon 19del, EGFR L858R/C797S, EGFR exon 20 NPG Ins D770_N771, EGFR exon 20 ASV Ins V769_D770, or EGFR exon 20 SVD Ins D770_N771 genes along with a puromycin selection marker. Transduced cells are selected with puromycin for 7 days and are then be transferred into culture media without Interleukin 3 (IL3). Surviving cells are confirmed to express EGFR by Western blot and maintained as a pool. CUTO14 cells were obtained from Dr. Robert C. Doebele at the University of Colorado. The IC50 date are included in Table 6 and Table 7.
as §3
(§9) 1.2 Cells are diluted with culture medium to the desired density and 40 μL of cell suspension is added into each well of 384-well cell culture plate and the seeding density is 50K cells/well (Ba/F3) or 12.5K cells/well (CUTO14).
as §4, §5, §6
(§10) 2.3 Transfer 5 nL of diluted compound from compound source plate into the cell plate.
(§11) 2.4 After compound treatment for 2 hours, perform pEGFR detection by AlphaLISA for compound treatment plates as described in “Detection” section.
(§12) 3 Detection by pEGFR AlphaLISA (Perkin-Elmer)
(§13) 3.1 Plates are removed from incubators and equilibrated at room temperature for 10 minutes, and media was removed
(§14) 3.2 10 μL of lysis buffer is added and plates shaken at 600 rpm for 1 hr.
(§15) 3.3 Prepare acceptor mix just before use and dispense 5 μL of acceptor mix to all the wells. Shake 350 rpm for Ihr in the dark
(§16) 3.4 Prepare donor mix under low light conditions prior to use. Dispense 5 μL of donor mix to all the wells. Mix well on the shaker, seal and wrap in aluminum foil and incubate 1.5 hrs at room temperature in the dark
(§17) 3.5 Transfer 18.5 μL mixture to OptiPlate 384, and read using an Envision. The IC50 date were included in Table 6 and Table 7.

[6] = target: T2, EGFR exon 19del (Ba/F3 cells); experiment: Inhibitor activity on EGFR phosphorylation (pEGFR AlphaLISA, 2 h), Ba/F3 EGFR exon 19del; conditions: read-out: Del19 IC50 (pEGFR)
Description: as §7, §8, §3, §9, §4, §5, §6, §10, §11, §12, §13, §14, §15, §16, §17

[7] = target: T5, EGFR exon 20 ASV Ins V769_D770 (Ba/F3 cells) (Homo sapiens, UniProt P00533, INS769ASV); experiment: Inhibitor activity on EGFR-dependent cell growth (CellTiter-Glo, 72 h), Ba/F3 EGFR exon 20 ASV Ins; conditions: read-out: BaF3 ASV IC50
T5 construct: expressed in transfected cells; host or cells: Ba/F3 (murine pro-B cells), retroviral transduction, puromycin selection, IL3-independent pool
How it was run: as §1

EGFR L858R (Ba/F3 cells) [8] = target: T6, EGFR L858R (Ba/F3 cells) (Homo sapiens, UniProt P00533, L858R); experiment: Inhibitor activity on EGFR phosphorylation (pEGFR AlphaLISA, 2 h), Ba/F3 EGFR L858R
T6 construct: expressed in transfected cells; host or cells: Ba/F3 (murine pro-B cells), retroviral transduction, puromycin selection, IL3-independent pool
Description: as §7, §8, §3, §9, §4, §5, §6, §10, §11, §12, §13, §14, §15, §16, §17

EGFR WT (Ba/F3 cells) = target: T7, EGFR WT (Ba/F3 cells) (Homo sapiens, UniProt P00533); experiment: Inhibitor activity on EGFR-dependent cell growth (CellTiter-Glo, 72 h), Ba/F3 EGFR WT; conditions: read-out: BaF3 WT IC50
T7 construct: expressed in transfected cells; host or cells: Ba/F3 (murine pro-B cells), retroviral transduction, puromycin selection, maintained with EGF
How it was run: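 This growth assay used Ba/F3 cells that depend on wild-type EGFR and are kept in EGF without IL3. Compounds were made up as 10 mM DMSO stocks and diluted 3-fold over 10 points. 120 nL went onto 600 cells/well. After 72 hours, 40 μL CellTiter-Glo was added and luminescence read on EnVision after 30 min.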

EGFR L858R (Ba/F3 cells) [9] = target: T6, EGFR L858R (Ba/F3 cells); experiment: Inhibitor activity on EGFR-dependent cell growth (CellTiter-Glo, 72 h), Ba/F3 EGFR L858R; conditions: read-out: BaF3 L858R IC50
How it was run: as §2

[10] = target: T8, EGFR exon 20 FQEA Ins A763_V764 (Ba/F3 cells) (Homo sapiens, UniProt P00533, INS763FQEA); experiment: Inhibitor activity on EGFR-dependent cell growth (CellTiter-Glo, 72 h), Ba/F3 EGFR exon 20 FQEA Ins; conditions: read-out: BaF3 FQEA IC50
T8 construct: expressed in transfected cells; host or cells: Ba/F3 (murine pro-B cells), retroviral transduction, puromycin selection, IL3-independent pool
How it was run: as §2

T2 sequence (P00533 with tags, fused parts or gaps DEL746-750): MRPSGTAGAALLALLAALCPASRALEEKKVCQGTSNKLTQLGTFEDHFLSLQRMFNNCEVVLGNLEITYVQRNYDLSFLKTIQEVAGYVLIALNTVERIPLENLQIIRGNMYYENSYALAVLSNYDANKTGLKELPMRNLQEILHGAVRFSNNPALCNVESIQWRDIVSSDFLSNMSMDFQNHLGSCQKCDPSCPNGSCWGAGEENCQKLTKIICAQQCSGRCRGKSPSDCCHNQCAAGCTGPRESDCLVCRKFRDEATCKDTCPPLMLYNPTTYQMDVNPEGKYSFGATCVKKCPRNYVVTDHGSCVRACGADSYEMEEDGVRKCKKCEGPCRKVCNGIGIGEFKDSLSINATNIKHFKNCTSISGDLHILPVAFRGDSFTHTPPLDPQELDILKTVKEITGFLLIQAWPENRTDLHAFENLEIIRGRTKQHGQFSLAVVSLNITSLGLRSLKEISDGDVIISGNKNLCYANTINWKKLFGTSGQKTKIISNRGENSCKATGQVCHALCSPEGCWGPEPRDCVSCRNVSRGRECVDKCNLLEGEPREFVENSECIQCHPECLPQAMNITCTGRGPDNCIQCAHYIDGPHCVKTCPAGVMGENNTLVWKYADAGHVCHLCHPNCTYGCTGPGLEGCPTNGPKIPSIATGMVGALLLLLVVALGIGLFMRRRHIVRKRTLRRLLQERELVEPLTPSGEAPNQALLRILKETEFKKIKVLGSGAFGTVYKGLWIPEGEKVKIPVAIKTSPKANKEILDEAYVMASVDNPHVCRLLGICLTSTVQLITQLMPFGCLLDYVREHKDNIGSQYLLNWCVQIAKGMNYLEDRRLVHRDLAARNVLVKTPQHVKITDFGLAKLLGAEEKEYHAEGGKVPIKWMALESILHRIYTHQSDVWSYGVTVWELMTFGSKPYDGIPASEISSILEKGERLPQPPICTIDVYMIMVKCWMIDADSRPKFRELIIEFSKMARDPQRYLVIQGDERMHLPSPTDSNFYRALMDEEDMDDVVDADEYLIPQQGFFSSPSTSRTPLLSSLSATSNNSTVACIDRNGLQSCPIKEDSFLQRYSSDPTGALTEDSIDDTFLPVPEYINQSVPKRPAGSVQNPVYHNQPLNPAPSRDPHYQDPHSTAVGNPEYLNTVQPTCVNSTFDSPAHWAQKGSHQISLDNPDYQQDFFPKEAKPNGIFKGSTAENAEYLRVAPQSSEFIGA
T5 sequence (P00533 with tags, fused parts or gaps INS769ASV): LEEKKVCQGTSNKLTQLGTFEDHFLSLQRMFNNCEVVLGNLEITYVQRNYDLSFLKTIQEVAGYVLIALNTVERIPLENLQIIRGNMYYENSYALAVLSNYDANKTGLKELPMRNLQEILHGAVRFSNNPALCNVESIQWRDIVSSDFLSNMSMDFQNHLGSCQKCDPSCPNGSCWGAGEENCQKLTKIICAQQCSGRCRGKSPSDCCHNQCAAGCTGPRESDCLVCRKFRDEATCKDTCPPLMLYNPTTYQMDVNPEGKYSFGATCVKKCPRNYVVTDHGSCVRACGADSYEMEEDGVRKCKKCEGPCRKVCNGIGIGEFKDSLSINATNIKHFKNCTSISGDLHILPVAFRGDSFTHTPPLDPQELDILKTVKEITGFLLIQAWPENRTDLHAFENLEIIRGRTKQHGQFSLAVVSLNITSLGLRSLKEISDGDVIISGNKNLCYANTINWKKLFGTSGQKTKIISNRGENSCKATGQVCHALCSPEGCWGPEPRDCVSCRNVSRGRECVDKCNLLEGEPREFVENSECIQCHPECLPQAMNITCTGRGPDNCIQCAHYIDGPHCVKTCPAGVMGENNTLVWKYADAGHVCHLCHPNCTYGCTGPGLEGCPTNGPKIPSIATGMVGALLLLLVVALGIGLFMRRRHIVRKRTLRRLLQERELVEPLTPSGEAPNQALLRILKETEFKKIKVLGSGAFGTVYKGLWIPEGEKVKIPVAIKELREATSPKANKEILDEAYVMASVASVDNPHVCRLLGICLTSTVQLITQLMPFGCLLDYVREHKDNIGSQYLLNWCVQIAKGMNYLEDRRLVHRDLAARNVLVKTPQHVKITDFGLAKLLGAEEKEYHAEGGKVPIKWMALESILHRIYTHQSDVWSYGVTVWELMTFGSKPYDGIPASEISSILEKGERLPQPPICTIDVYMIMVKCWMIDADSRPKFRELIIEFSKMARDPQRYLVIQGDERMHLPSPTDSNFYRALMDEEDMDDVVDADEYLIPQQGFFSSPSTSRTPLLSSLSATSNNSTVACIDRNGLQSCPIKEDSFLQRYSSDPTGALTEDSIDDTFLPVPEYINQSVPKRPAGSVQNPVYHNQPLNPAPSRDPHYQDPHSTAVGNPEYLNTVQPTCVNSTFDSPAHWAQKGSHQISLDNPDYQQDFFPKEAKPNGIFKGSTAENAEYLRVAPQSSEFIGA
T1 sequence (P00533 with tags, fused parts or gaps INS770NPG): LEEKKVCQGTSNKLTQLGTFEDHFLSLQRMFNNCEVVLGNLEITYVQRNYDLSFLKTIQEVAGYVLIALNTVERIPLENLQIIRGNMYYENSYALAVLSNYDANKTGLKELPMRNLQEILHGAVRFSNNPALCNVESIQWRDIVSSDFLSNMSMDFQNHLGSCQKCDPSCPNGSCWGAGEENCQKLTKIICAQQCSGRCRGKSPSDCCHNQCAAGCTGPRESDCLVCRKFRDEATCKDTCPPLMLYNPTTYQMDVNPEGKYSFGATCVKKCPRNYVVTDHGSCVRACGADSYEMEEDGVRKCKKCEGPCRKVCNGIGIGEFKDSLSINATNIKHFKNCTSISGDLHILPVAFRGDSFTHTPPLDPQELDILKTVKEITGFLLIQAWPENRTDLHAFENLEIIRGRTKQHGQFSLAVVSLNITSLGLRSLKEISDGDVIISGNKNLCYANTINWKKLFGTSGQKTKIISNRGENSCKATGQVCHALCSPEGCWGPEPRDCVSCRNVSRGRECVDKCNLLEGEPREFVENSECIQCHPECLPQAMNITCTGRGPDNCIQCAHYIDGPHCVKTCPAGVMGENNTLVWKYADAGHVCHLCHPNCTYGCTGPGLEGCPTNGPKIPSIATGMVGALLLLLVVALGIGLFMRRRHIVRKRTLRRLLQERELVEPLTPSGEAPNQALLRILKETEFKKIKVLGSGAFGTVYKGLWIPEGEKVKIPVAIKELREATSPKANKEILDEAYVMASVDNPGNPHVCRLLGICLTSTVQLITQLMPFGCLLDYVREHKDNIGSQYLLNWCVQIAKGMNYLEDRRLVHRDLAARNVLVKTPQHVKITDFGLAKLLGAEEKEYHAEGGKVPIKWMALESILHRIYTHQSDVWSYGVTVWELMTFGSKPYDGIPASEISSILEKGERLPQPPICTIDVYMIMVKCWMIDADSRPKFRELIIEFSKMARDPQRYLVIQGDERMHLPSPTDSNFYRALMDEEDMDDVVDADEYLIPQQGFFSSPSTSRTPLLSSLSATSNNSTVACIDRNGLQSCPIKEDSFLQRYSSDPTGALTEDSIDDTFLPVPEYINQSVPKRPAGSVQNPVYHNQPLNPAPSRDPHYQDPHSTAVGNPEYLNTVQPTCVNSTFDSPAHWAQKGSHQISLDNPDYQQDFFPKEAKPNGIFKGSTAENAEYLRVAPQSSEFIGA
T6 sequence (P00533 25-1210 L858R): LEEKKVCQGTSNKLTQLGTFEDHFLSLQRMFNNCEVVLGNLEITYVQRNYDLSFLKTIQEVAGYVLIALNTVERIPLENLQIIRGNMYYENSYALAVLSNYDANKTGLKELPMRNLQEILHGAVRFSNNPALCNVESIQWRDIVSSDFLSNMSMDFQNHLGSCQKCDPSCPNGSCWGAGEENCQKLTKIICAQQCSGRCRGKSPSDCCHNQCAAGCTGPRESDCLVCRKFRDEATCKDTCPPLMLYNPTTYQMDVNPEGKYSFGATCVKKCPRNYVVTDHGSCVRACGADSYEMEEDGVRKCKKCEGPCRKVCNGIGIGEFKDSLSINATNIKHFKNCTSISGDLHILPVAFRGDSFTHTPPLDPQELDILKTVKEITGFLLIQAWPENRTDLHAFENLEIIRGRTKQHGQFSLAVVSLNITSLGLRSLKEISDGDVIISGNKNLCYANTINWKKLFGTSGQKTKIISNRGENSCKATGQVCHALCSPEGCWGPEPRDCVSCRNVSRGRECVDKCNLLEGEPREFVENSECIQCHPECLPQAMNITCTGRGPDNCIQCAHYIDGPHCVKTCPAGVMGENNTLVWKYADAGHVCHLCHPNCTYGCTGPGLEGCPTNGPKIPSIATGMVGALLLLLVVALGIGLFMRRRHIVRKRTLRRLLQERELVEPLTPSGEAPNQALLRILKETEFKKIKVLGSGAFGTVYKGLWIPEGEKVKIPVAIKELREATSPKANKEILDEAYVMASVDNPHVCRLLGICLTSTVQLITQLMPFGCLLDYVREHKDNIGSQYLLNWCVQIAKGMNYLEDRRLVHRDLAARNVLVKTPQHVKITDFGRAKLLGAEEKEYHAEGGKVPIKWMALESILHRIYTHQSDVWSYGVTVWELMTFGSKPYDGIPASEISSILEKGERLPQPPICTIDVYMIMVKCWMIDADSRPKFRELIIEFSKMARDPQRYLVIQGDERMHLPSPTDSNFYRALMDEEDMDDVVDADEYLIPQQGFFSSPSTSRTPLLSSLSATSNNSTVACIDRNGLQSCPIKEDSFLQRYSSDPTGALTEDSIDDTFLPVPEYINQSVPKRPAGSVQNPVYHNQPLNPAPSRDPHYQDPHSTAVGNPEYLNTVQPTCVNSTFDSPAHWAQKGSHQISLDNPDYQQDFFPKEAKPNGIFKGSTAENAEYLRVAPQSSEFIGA

Compound | IC50 [1] [nM] | IC50 [2] [nM] | IC50 [3] [nM] | IC50 [4] [nM] | IC50 [5] [nM] | IC50 [6] [nM] | IC50 [7] [nM] | IC50 (EGFR L858R (Ba/F3 cells) [8]) [nM] | IC50 (EGFR WT (Ba/F3 cells)) [nM] | IC50 (EGFR L858R (Ba/F3 cells) [9]) [nM] | IC50 [10] [nM]
COc1c(F)cccc1Nc1c(-c2ccncn2)[nH]c2c1C(=O)NCC2C[C@H]1COCCO1 (single isomer, unassigned) [Compound 530, (7R*)-7-[(2S)-1,4-dioxan-2-ylmethyl]-3-[(3-fluoro-2-methoxyphenyl)amino]-2-(pyrimidin-4-yl)-1H,5H,6H,7H-pyrrolo[3,2-c]pyridin-4-one] | < 100 | < 100 | < 100 | < 100 | < 100 | < 100 | < 100 | < 100 | 100 to 1000 | < 100 | –
COc1c(F)cccc1Nc1c(-c2ccncn2)[nH]c2c1C(=O)NCC2C[C@H]1COCCO1 (single isomer, unassigned) [Compound 572, (7R*)-7-[(2S)-1,4-dioxan-2-ylmethyl]-3-[(3-fluoro-2-methoxyphenyl)amino]-2-(pyrimidin-4-yl)-1H,5H,6H,7H-pyrrolo[3,2-c]pyridin-4-one] | 100 to 1000 | < 100 | < 100 | < 100 | < 100 | < 100 | 100 to 1000 | < 100 | > 1000 | < 100 | –
COc1c(Cl)cccc1Nc1c(-c2ccncc2F)[nH]c2c1C(=O)NC[C@H]2CC1COCCO1 (stereo in doubt) [Compound 480, (7R)-3-[(3-chloro-2-methoxyphenyl)amino]-7-[(2R)-1,4-dioxan-2-ylmethyl]-2-(3-fluoropyridin-4-yl)-1H,5H,6H,7H-pyrrolo[3,2-c]pyridin-4-one] | < 100 | < 100 | – | < 100 | < 100 | < 100 | – | < 100 | 100 to 1000 | < 100 | < 100
COc1c(F)cccc1Nc1c(-c2ccncc2F)[nH]c2c1C(=O)NC[C@H]2CC1COCCO1 (stereo in doubt) [Compound 575, (7R)-7-[(2R)-1,4-dioxan-2-ylmethyl]-3-[(3-fluoro-2-methoxyphenyl)amino]-2-(3-fluoropyridin-4-yl)-1H,5H,6H,7H-pyrrolo[3,2-c]pyridin-4-one] | < 100 | < 100 | < 100 | < 100 | < 100 | < 100 | < 100 | < 100 | 100 to 1000 | < 100 | –
COc1c(Cl)cccc1Nc1c(-c2ccncc2F)[nH]c2c1C(=O)NCC21CN(CC(F)F)C1 [Compound 519, 3′-[(3-chloro-2-methoxyphenyl)amino]-1-(2,2-difluoroethyl)-2′-(3-fluoropyridin-4-yl)-5′,6′-dihydro-1′H-spiro[azetidine-3,7′-pyrrolo[3,2-c]pyridin]-4′-one] | 100 to 1000 | < 100 | 100 to 1000 | < 100 | < 100 | < 100 | 100 to 1000 | < 100 | > 1000 | < 100 | –
COc1c(Cl)cccc1Nc1c(-c2ccnc3ccc(OC4(C)COC4)nc23)[nH]c2c1C(=O)NCC2 [Compound 787, 3-[(3-chloro-2-methoxyphenyl)amino]-2-[6-[(3-methyloxetan-3-yl)oxy]-1,5-naphthyridin-4-yl]-1H,5H,6H,7H-pyrrolo[3,2-c] pyridin-4-one] | < 100 | < 100 | < 100 | < 100 | < 100 | < 100 | < 100 | < 100 | < 100 | < 100 | < 100
COc1c(F)cccc1Nc1c(-c2ccnc3ccc(OC4(C)COC4)nc23)[nH]c2c1C(=O)NCC2 [Compound 788, 3-[(3-fluoro-2-methoxyphenyl)amino]-2-[6-[(3-methyloxetan-3-yl)oxy]-1,5-naphthyridin-4-yl]-1H,5H,6H,7H-pyrrolo[3,2-c]pyridin-4-one] | < 100 | < 100 | < 100 | < 100 | < 100 | < 100 | < 100 | < 100 | < 100 | < 100 | < 100
COc1c(Cl)cccc1Nc1c(-c2ccnc3ccc(C)nc23)[nH]c2c1C(=O)NCC2 [compound 749, 3-[(3-chloro-2-methoxyphenyl)amino]-2-(6-methyl-1,5-naphthyridin-4-yl)-1H,5H,6H,7H-pyrrolo[3,2-c]pyridin-4-one] | < 100 | < 100 | < 100 | < 100 | < 100 | < 100 | < 100 | < 100 | 100 to 1000 | < 100 | < 100
